Laboratory results as given in patent US8614209B2, “Amido-thiophene compounds and their use” (The University of Edinburgh, priority 2008, dated 2013).

Molecular target: T1, human 11β-HSD2 (Homo sapiens, UniProt P80365)
T1 construct: CHO cells stably transfected with the full-length gene coding for human 11β-HSD2 were used; expressed in transfected cells; host or cells: CHO
T1 sequence (P80365 1-405): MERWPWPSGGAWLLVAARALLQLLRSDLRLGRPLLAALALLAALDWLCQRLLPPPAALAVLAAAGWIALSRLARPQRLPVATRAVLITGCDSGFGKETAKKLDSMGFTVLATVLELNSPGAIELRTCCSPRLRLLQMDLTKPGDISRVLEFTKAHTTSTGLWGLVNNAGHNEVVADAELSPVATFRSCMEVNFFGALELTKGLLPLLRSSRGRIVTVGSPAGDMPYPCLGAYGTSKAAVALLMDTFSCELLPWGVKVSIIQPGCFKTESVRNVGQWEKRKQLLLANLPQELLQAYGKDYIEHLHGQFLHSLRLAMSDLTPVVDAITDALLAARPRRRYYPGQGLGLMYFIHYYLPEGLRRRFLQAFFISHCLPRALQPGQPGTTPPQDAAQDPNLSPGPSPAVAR
Experiment: Cellular in vitro 11β-HSD2 enzyme inhibition assay (CHO cells, TLC/phosphoimager)
Format: cell-based
Details: CHO cells stably transfected with human 11β-HSD2; Table 1
Procedure: Cellular In Vitro 11β-HSD2 Enzyme Inhibition Assay
For measurement of inhibition of 11β-HSD2, CHO cells stably transfected with the full-length gene coding for human 11β-HSD2 were used. Assays were carried out in 96-well microplates containing 1×10^5 cells/well. Controls and compounds were plated as above, so that the final DMSO concentration in each well was 1%.
The assay solutions were transferred to glass tubes and 20 μL ethyl acetate added to each tube. Each tube was vortexed thoroughly and the upper layer containing the tritiated steroid transferred to a fresh glass tube. The solvent was evaporated by placing the tubes in a heating block at 65° C. under a stream of Nitrogen gas. 20 μL ethanol was added to each of the dried samples and vortexed briefly. Each sample was applied to a silica TLC plate and the plate dried. The plate was placed vertically in a glass tank containing 92% chloroform:8% ethanol and the solvent allowed to rise up the plate. The plate was dried, placed in an imaging cassette, and overlayed with a tritium imaging plate for 1-2 days. The amount of enzyme inhibition in each sample was determined by measuring the intensity of the substrate and product spots using a phosphoimager.
IC50 values for inhibitors were determined as described for 118-HSD1.

| IC50 [µM] | SMILES |
| --- | --- |
| > 10 | O=C(c1csc(-n2ccnc2)c1)N1CCCC2CCCCC21 (centres unmarked) [FF-06, (5-Imidazol-1-yl-thiophen-3-yl)-(octahydro-quinolin-1-yl)-methanone] |
| > 10 | O=C(c1cc(-c2ccccc2)sc1Cl)N1CCCCC1 [AA-30] |
| > 10 | CC1(C)CC2CC(C)(CN2C(=O)c2csc(-c3ccncc3)c2)C1 (centres unmarked) [GG-01] |
| > 10 | CC1(C)CC2CC(C)(CN2C(=O)c2cc(-c3ccccc3)sc2Cl)C1 (centres unmarked) [CC-02] |
| > 10 | O=C(c1cc(-c2ccccn2)sc1Cl)N1CCCCCC1 [EE-12] |
